These are literature values, as cited in article PMC7958448, “Bepridil is potent against SARS-CoV-2 in vitro” (Proceedings of the National Academy of Sciences of the …, 2021).

The structures appear in SMILES notation.

The subject of this series is SARS-CoV-2 in Vero E6 cells. As to conditions: cited from earlier work.

As a reminder, the EC50 is the concentration needed to bring the measured effect to its halfway point. Take `CCC(CC)COC(=O)[C@H](C)N[P@](=O)(OC[C@H]1O[C@@](C#N)(c2ccc3c(N)ncnn23)[C@H](O)[C@@H]1O)Oc1ccccc1` [remdesivir]: the EC50 is 770 nM.
